Measured values from patent US20050124668A1, “Amino acids with affinity for the alpha2delta-protein” (priority 2003, published 2005).

How the values were obtained:
[1] = molecular target: T1, α2δ-subunit of a calcium channel (Sus scrofa, UniProt A0A287BIN3); experiment: radioligand binding assay using [3H]-gabapentin; conditions: α2δ-subunit derived from porcine brain tissue
T1 construct: the α2δ-subunit derived from porcine brain tissue was used; from tissue; host or cells: porcine brain tissue
From the text: The ability of compounds of the present invention to bind to the α2δ-subunit of a calcium channel can be determined using the following binding assay.
The radioligand binding assay using [^3H]-gabapentin and the α2δ-subunit derived from porcine brain tissue was used. See Nicolas S. Gee et al., “The novel anticonvulsant drug, gabapentin (Neurontin), binds to the α2 subunit of a calcium channel,” J. Biol. Chem. 271 (10):5768-76 (1996). Compounds of the invention bind with nanomolar to micromolar affinity for the α2δ protein.

T1 sequence (A0A287BIN3 25-1109): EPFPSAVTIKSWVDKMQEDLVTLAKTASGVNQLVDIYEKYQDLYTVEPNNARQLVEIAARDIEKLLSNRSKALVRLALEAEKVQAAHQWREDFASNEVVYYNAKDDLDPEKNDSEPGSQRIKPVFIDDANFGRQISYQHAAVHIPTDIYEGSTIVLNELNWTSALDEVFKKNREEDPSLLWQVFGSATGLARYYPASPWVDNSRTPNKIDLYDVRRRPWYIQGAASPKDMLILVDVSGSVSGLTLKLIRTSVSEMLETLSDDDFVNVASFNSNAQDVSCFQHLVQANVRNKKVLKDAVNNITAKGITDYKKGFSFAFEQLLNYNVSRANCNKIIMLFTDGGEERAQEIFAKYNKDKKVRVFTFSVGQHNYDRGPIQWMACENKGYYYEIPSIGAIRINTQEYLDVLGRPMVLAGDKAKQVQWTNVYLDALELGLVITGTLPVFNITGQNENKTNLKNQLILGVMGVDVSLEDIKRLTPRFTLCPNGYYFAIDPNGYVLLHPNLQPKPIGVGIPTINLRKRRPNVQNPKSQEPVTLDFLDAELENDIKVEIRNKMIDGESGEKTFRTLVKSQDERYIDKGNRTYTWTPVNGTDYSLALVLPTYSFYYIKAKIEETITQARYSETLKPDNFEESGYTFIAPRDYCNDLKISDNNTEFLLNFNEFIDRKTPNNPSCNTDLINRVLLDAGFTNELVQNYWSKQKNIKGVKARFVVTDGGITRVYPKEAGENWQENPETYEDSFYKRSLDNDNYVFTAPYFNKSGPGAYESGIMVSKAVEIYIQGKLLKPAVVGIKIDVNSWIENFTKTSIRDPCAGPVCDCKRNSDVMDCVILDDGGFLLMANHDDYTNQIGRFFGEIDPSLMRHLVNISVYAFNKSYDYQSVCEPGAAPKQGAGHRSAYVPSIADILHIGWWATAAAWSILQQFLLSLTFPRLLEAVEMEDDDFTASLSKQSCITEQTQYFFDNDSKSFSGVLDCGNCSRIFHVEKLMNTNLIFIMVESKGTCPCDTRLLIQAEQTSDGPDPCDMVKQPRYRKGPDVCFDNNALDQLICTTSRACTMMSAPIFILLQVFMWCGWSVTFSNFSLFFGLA

SMILES | melting point [°C] | affinity to the α2δ protein [1] [nM]
CC[C@H](C)C[C@](C)(N)CC(=O)O | 215 to 217 | –
CCCCC(CC)CCC(CN)C(=O)O (stereo not shown) [2-aminomethyl-5-ethyl-nonanoic acid] | – | 75
CC[C@@H](C)C[C@](C)(N)CC(=O)O [(3S,5R)-3-amino-3,5-dimethyl-heptanoic acid] | – | 236
CCC(CC)C[C@](C)(N)CC(=O)O [(S)-3-amino-5-ethyl-3-methyl-heptanoic acid] | – | 149
